# Measured values as given in paper PMC7525318, “Identification of Six Flavonoids as Novel Cellular Antioxidants and Their Structure-Activity Relationship” (Oxidative Medicine and Cellular Longevity, 2020).
# Legend:
# HepG2 cells [1] = assay: Cellular antioxidant activity (CAA) assay; assay type: cell-based; conditions: DCFH-DA 25 μM, ABAP 600 μM
# Procedure: The CAA assay was tested as described previously. 6 × 10^4 cells/well of HepG2 cells were seeded at a 96-well microplate with 100 μL of growth medium/well. […] Then, the cells were washed with PBS and treated with 100 μL of 600 μM ABAP (dissolved in HBSS), and the 96-well microplate was immediately placed into an Infinite SpectraMax i3x Multi-Mode Detection plate-reader at 37°C. […]
# catalase (CAT) = assay: Intracellular CAT activity in ABAP-treated HepG2 cells; assay type: cell-based; conditions: for CAT activity of PC value: % of PC value; for increase of CAT activity: HepG2, pretreatment before ABAP
# Procedure: (§1) HepG2 cells were seeded (1 × 10^6 cells/well) in six-well plates. After incubation for 24 h, the cells were pretreated with different concentration samples. Medium was washed by PBS and treated with 600 μM ABAP. The cells were collected and treated with cell lysis buffer (20 mM Tris at pH 7.5, 150 mM NaCl and 1% Triton X-100) at 4°C. The lysed cells were used to measure the intracellular activities of SOD, CAT, and GSH-Px by kits according to the manufacturer instructions (Wen 2015). Cells without sample and ABAP treatment were used as positive control (PC), while cells treated with ABAP but not sample were used as negative control (NC).
# HepG2 cells [2] = assay: Cytotoxicity assay (CCK-8); assay type: cell-based
# Procedure: The cytotoxicity and antiproliferative activity assays were performed by using the CCK-8 assay kit. Briefly, HepG2 cells were cultured at a density of 4 × 10^4 cells/well or 2.5 × 10^4 cells/well in a 96-well microplate with growth medium. After incubation at 37°C, the growth medium is treated with 100 μL of growth medium containing different concentrations of tested compounds for 24 h or 72 h. The wells having growth medium without the tested compound served as control. Then, the cells were incubated with 10 μL/well CCK-8 solutions for 2 h at 37°C. The absorbance values of each well were measured at 450 nm using a microplate reader (SpectraMax i3x, ForteBio Analytics Co., Ltd., USA). The cytotoxic activity and antiproliferative effects of the tested compound was calculated as(1) Cytotoxicity %=1−As/Ac×100%, (2) Cell proliferation %=As/Ac×100%, where As is the absorbance of the well with compound; Ac is the absorbance of control.
# [3] = system: glutathione peroxidase (GSH-Px); assay: Intracellular GSH-Px activity in ABAP-treated HepG2 cells; assay type: cell-based; conditions: for GSH-Px activity of PC value: % of PC value; for increase of GSH-Px activity: HepG2, pretreatment before ABAP
# Procedure: as §1
# [4] = DPPH radical scavenging activity; conditions: 0.1 mM DPPH in methanol, 37°C, 30 min
# Procedure: This assay was conducted as previously described by Wen et al. with some modifications. DPPH was freshly prepared in methanol at a concentration of 0.1 mM. The solution (20 μL) containing the tested compounds with different concentrations was added into the DPPH solution (180 μL) in the 96-well plates. […] The IC50 value was calculated on the scavenging activity against DPPH radical.
# [5] = system: superoxide dismutase (SOD); assay: Intracellular SOD activity in ABAP-treated HepG2 cells; assay type: cell-based; conditions: then ABAP
# Procedure: as §1
# [6] = Oxygen radical antioxidant capacity (ORAC) assay; conditions: Trolox equivalents; AAPH, fluorescein
# Procedure: The ORAC assay was evaluated as previously described by Cao et al. with some modifications. 50 μL of samples or Trolox with different concentrations and the fluorescein solution was added to a 96-well microplate, which was incubated at 37°C for 10 min. […] The ORAC values were calculated by the regression equation between the Trolox concentration and the net area under the curve (expressed as μmol Trolox eq/μmol sample).
# [7] = HepG2, first of three concentrations (not given)
# [8] = HepG2, second of three concentrations (not given)
# [9] = HepG2, third of three concentrations (not given)
# [10] = HepG2, pretreated at a higher concentration
# [11] = HepG2, pretreated with 10 μM, then ABAP
# [12] = HepG2, pretreated with 20 μM, then ABAP
# [13] = HepG2, pretreated with 30 μM, then ABAP
# [14] = HepG2, pretreated with 5 μM, then ABAP
# [15] = HepG2, pretreated with 15 μM, then ABAP
Compound,EC50 (HepG2 cells [1]; Homo sapiens) [µM],increase of CAT activity (catalase (CAT)),cytotoxicity (HepG2 cells [2]; range of 10-160 μM),increase of GSH-Px activity [3],IC50 [4] [µM],"SOD activity compared to NC cells [5, 10]",ORAC values [6] [μmol TE/μmol],other results
"O=c1c(O)c(-c2ccc(O)cc2)oc2c(O)c(O)cc(O)c12 [compound 8, Herbacetin]",27.1 ± 2.47,dose-dependent manner,no significant effects,dose-dependent manner,> 200,significant increase,5.05 ± 0.05,"CAT activity of PC value (catalase (CAT); [7]): 50.86 ± 2.23%; CAT activity of PC value (catalase (CAT); [8]): 67.01 ± 5.32%; CAT activity of PC value (catalase (CAT); [9]): 80.86 ± 5.21%; GSH-Px activity of PC value [3, 7]: 54.02 ± 3.02%; GSH-Px activity of PC value [3, 8]: 63.46 ± 2.51%; GSH-Px activity of PC value [3, 9]: 82.02 ± 5.35%; SOD activity compared to NC cells ([5]; HepG2, pretreated with 15 μM): insignificant increase"
"O=c1c(O[C@@H]2O[C@@H](CO)[C@H](O)[C@H]2O)c(-c2ccc(O)c(O)c2)oc2cc(O)cc(O)c12 [compound 10, Avicularin]",45.1 ± 2.12,dose-dependent manner,no significant effects,dose-dependent manner,71.7,significant increase,,"CAT activity of PC value (catalase (CAT); [11]): 51.90 ± 3.21%; CAT activity of PC value (catalase (CAT); [12]): 68.95 ± 4.22%; CAT activity of PC value (catalase (CAT); [13]): 81.82 ± 4.25%; GSH-Px activity of PC value [3, 11]: 54.37 ± 3.05%; GSH-Px activity of PC value [3, 12]: 68.21 ± 4.25%; GSH-Px activity of PC value [3, 13]: 81.82 ± 5.52%; SOD activity compared to NC cells ([5]; HepG2, pretreated with 10 μM): insignificant increase"
"O=c1c(O)c(-c2ccc(O)cc2)oc2cc(OC3O[C@H](CO)[C@@H](O)[C@H](O)[C@H]3O)cc(O)c12 (some centres unmarked) [compound 13, Kaempferol-7-O-glucopyranoside]",57.8 ± 3.12,dose-dependent manner,no significant effects,dose-dependent manner,> 200,significant increase,,"cytotoxicity (HepG2 cells [2]; at higher concentration): slight cytotoxicity; SOD activity compared to NC cells ([5]; HepG2, pretreated with 20 μM): insignificant increase"
"O=c1cc(-c2ccc(O)c(O)c2)oc2cc(O)c([C@@H]3O[C@H](CO)[C@@H](O)[C@H](O)[C@H]3O)c(O)c12 [compound 32, Isoorientin]",139 ± 5.21,dose-dependent manner,no significant effects,dose-dependent manner,> 200,significant increase,,"CAT activity of PC value (catalase (CAT); [7]): 44.93 ± 2.23%; CAT activity of PC value (catalase (CAT); [8]): 52.68 ± 3.42%; CAT activity of PC value (catalase (CAT); [9]): 68.35 ± 3.72%; GSH-Px activity of PC value [3, 7]: 47.79 ± 3.28%; GSH-Px activity of PC value [3, 8]: 55.99 ± 3.57%; GSH-Px activity of PC value [3, 9]: 71.20 ± 4.28%; SOD activity compared to NC cells ([5]; HepG2, pretreated with 40 μM): insignificant increase"
"COc1ccc(CCC(=O)c2c(O)cc(O[C@@H]3O[C@H](CO)[C@@H](O)[C@H](O)[C@H]3O[C@@H]3O[C@@H](C)[C@H](O)[C@@H](O)[C@H]3O)cc2O)cc1O [compound 47, Neohesperidin dihydrochalcone]",> 200,,,,> 200,,4.31 ± 0.01,
"O=C(CCc1ccc(O)cc1)c1c(O)cc(O)cc1O[C@@H]1O[C@H](CO)[C@@H](O)[C@H](O)[C@H]1O [compound 49, Phlorizin]",> 200,,,,> 200,,6.43 ± 0.14,
"Oc1cc(O)c2cc(O)c(-c3ccc(O)c(O)c3)[o+]c2c1 [compound 51, Cyanidin chloride]",19.16 ± 0.16,,,,70.8 ± 2.31,,5.71 ± 0.03,
"Oc1cc(O)c2cc(O)c(-c3cc(O)c(O)c(O)c3)[o+]c2c1 [compound 52, Delphinidin chloride]",24.91 ± 0.12,,,,36.8 ± 4.26,,5.02 ± 0.02,
"OC[C@H]1O[C@@H](Oc2cc3c(O)cc(O)cc3[o+]c2-c2ccc(O)c(O)c2)[C@H](O)[C@@H](O)[C@@H]1O.[Cl-] [compound 54, Cyanidin-3-O-glucoside chloride]",,,,,> 200,,4.63 ± 0.14,EC50 (HepG2 cells [1]): 43.8 µM
"COc1cc(-c2[o+]c3cc(O)cc(O)c3cc2O[C@@H]2O[C@H](CO)[C@@H](O)[C@H](O)[C@H]2O)cc(OC)c1O.[Cl-] [compound 56, Oenin chloride]",,,,,> 200,,4.78 ± 0.15,EC50 (HepG2 cells [1]): > 200 µM
"COc1cc(-c2[o+]c3cc(O)cc(OC4OC(CO)C(O)C(O)C4O)c3cc2OC2OC(CO)C(O)C(O)C2O)cc(OC)c1O (centres unmarked) [compound 57, Malvin]",> 200,,,,> 200,,4.32 ± 0.19,
"Oc1cc(O)c2c(c1)O[C@H](c1ccc(O)c(O)c1)[C@H](O)C2 [compound 58, Epicatechin]",> 200,,,,96.03 ± 0.13,,4.83 ± 0.13,
"Oc1cc(O)c2c(c1)OC(c1ccc(O)c(O)c1)C(O)C2 (centres unmarked) [compound 59, Catechin]",> 200,,,,130 ± 5.55,,4.93 ± 0.02,
"O=C(O[C@@H]1Cc2c(O)cc(O)cc2O[C@@H]1c1cc(O)c(O)c(O)c1)c1cc(O)c(O)c(O)c1 [compound 60, Epigallocatechin gallate]",25.91 ± 0.25,,,,19.1 ± 0.62,,6.02 ± 0.14,
Rhamnetin [compound 2],,dose-dependent manner,no significant effects,dose-dependent manner,34 ± 0.61,significant increase,4.72 ± 0.02,"EC50 (HepG2 cells [1]): 10.8 ± 0.34 µM; CAT activity of PC value (catalase (CAT); [14]): 56.58 ± 3.25%; CAT activity of PC value (catalase (CAT); [11]): 74.98 ± 4.25%; CAT activity of PC value (catalase (CAT); [15]): 83.10 ± 4.54%; GSH-Px activity of PC value [3, 14]: 65.09 ± 3.21%; GSH-Px activity of PC value [3, 11]: 71.88 ± 4.23%; GSH-Px activity of PC value [3, 15]: 81.24 ± 5.65%; SOD activity compared to NC cells ([5]; HepG2, pretreated with 5 μM): insignificant increase"
